Results published in PMC11253855, “Phosphonodiamidate prodrugs of phosphoantigens (ProPAgens) exhibit potent Vγ9/Vδ2 T cell activation and eradication of cancer cells” (RSC Medicinal Chemistry, 2024).
Like-named read-outs stand apart in the source and are kept apart here.

Columns and labels:
Vγ9/Vδ2 T cells [1] = conditions: read-out: EC50 (activator of Vγ9/Vδ2 T cells), cited from earlier work
T24 cells = assay: Europium-based (DELFIA) cytotoxicity assay: Vγ9/Vδ2 T cell killing of drug-treated T24 cells; parameters: species or system human; conditions: 10 nM ProPAgen for 2 h versus 10 μM zoledronate; effector : target 80 : 1, 1 h
Procedure: Encouraged by the potency and specificity of our HMBP phosphonodiamidate ProPAgens, especially 9d and 14d, we subsequently studied their ability to sensitize the urinary bladder carcinoma cell line T24 for targeted killing by in vitro expanded Vγ9/Vδ2 T cells (Fig. 5). In brief, T24 cells were incubated in PBS containing 10 μM zoledronate or the indicated HMBP phosphonodiamidate ProPAgens for a period of 2 h. A positive control for cell death (target cells incubated with 10% v/v DELFIA lysis buffer) and media-only treated control (no drug) was also included. The cells were then washed and cocultured with ex vivo expanded Vγ9/Vδ2 T cells for 1 h at 80 : 1 effector : target ratio, and the level of killing of T24 cells was then measured via time-resolved fluorescence.
Fig. 5 Cytotoxicity of Vγ9/Vδ2 T cells toward the phosphonodiamidate ProPAgen-treated T24 cells. % killing of T24 cells was calculated with this formula: [(experimental release − spontaneous release)/(maximal release − spontaneous release)] × 100. […]
To assess the level of killing of drug-treated and untreated tumour cells, a Europium-based cytotoxicity assay was performed (DELFIA, Perkin Elmer) as described elsewhere.[47] […] Time-resolved fluorescence was then measured using a PHERAstar microplate reader (BMG Labtech). […] The data were processed and analysed using Microsoft Excel and GraphPad Prism v9 software.

Vγ9/Vδ2 T cells [2] = assay: In vitro Vγ9/Vδ2 T cell activation assay (PBMCs, CD69+ CD25+ by flow cytometry); format: cell-based, human; conditions: for Activation of Vγ9/Vδ2 T cells at the highest concentration studied: 100 μM compared with 10 μM; for EC50: Homo sapiens, T-cell, read-out: EC50 (activation of Vγ9/Vδ2 T cells)
Procedure: Subsequently, we studied the ability of these HMBP phosphonodiamidate ProPAgens to activate Vγ9/Vδ2 T cells and elicit their lysis of cancer cells in vitro. For this, peripheral blood mononuclear cells (PBMCs) derived from healthy donors and containing Vγ9/Vδ2 T cells were incubated with increasing concentrations of zoledronate or phosphonodiamidate HMBP ProPAgens 9a–d and 14a–d (up to 100 μM) (Fig. 4). Peripheral blood γδ T cells lack appreciable levels of surface CD69 or CD25 under steady-state conditions, but TCR stimulation upregulates both T cell activation markers.[6] Thus, PAg-responsive Vγ9/Vδ2 T cells were then assessed for the upregulation of CD69 and CD25.
Fig. 4 In vitro phosphonodiamidate ProPAgen-mediated activation of Vγ9/Vδ2 T cells, following overnight incubation with zoledronate, and HMBP ProPAgens 9a–d and 14a–d. Levels of activation are represented as % of Vγ9/Vδ2 T cells that are CD69+ CD25+. Data is shown as mean ± SE (n = 4). (A) Activation of Vγ9/Vδ2 stimulated by phosphonodiamidate ProPAgens 9a–d. (B) Activation of Vγ9/Vδ2 stimulated by ProPAgens 14a–d. (C) Activation of Vγ9Vδ2 stimulated by zoledronate (Zol). (D) EC50 values were calculated using GraphPad Prism v9 based on the results of the activation assay.
As for the activation of Vγ9/Vδ2 T cells by the phosphonodiamidate ProPAgens (9a–d and 14a–d), these were initially tested using a concentration range from […] to 100 μM (Fig. 4A and B).
Healthy donor peripheral blood mononuclear cells (PBMCs) were harvested as previously described.[20] To assess the activation of Vγ9/Vδ2 T cells, PBMCs were seeded into U-bottom tissue culture-treated 96-well plates at a cell density of 500 000 cells per well. The cells were incubated with medium-only (control), in the presence of zoledronate at 10 pM to 100 μM, and with HMBP ProPAgens initially at 10 pM to 100 μM, and then at 1 aM to 100 μM for compounds 9d and 14d in a separate experiment. The cells were incubated at 37 °C/5% CO2 overnight, and stained by flow cytometry for the following markers: viability (Zombie Aqua 1 : 400), CD3 (BV421 1 : 100), CD8 (BV650 1 : 200), Vγ9 (PEcy5 1 : 400), Vδ2 (APC 1 : 200), CD69 (PE 1 : 25), CD25 (FITC 1 : 100). The samples were acquired via LSRFortessa X20 (BD Biosciences), and the data obtained were analyzed using FlowJo v10 and GraphPad Prism v9 software.

[3] = Fig. 1A legend, no reference given

For `C/C(=C\COP(=O)(O)OP(=O)(O)O)CO` [HMBPP, (E)-4-hydroxy-3-methyl-but-2-enyl pyrophosphate], the EC50 (Vγ9/Vδ2 T cells [1]; [3]) is given as 0.06 to 0.5 nM.

With `C/C(=C\CC(F)(F)P(=O)(N[C@@H](C)C(=O)OCc1ccccc1)N[C@@H](C)C(=O)OCc1ccccc1)CO` [9d, Dibenzyl 2,2′-((((E)-1,1-difluoro-5-hydroxy-4-methylpent-3-en-1-yl)phosphoryl)bis(azanediyl))(2S,2′S)-dipropionate] the “sensitizing effect for killing of T24 cells by Vγ9/Vδ2 T cells” value (T24 cells) was “much more potent” and the “Activation of Vγ9/Vδ2 T cells at the highest concentration studied” value (Vγ9/Vδ2 T cells [2]) was “less than that achieved with 10 μM”.

For `C/C(=C\COP(=O)(O)O)CO` [HMBP, (E)-4-Hydroxy-3-methylbut-2-enyl monophosphate], the EC50 (Vγ9/Vδ2 T cells [1]) is given as 4000 nM.

In the case of `C/C(=C\CCP(=O)(N[C@@H](C)C(=O)OC(C)C)N[C@@H](C)C(=O)OC(C)C)CO` [14b, Diisopropyl 2,2′-((((E)-5-hydroxy-4-methylpent-3-en-1-yl)phosphoryl)bis(azanediyl))(2S,2′S)-dipropionate], the EC50 (Vγ9/Vδ2 T cells [2]) is reported as 87 nM.

In the case of `O=P(O)(O)C(O)(Cc1cccnc1)P(=O)(O)O` [risedronate], the EC50 (Vγ9/Vδ2 T cells [1]; [3]) is given as 80 to 5000 nM.

For `O=P(O)(O)C(O)(Cn1ccnc1)P(=O)(O)O` [Zoledronate, zoledronate], the EC50 (Vγ9/Vδ2 T cells [1]; [3]) is listed as 3 to 3000 nM.

In the case of `C=C(C)CCOP(=O)(O)OP(=O)(O)O` [IPP, isopentenyl pyrophosphate], the EC50 (Vγ9/Vδ2 T cells [1]; [3]) is listed as 1000 to 10000 nM.

Work on `C/C(=C\CC(F)(F)P(=O)(N[C@@H](C)C(=O)OC(C)(C)C)N[C@@H](C)C(=O)OC(C)(C)C)CO` [9c, Di-tert-butyl 2,2′-((((E)-1,1-difluoro-5-hydroxy-4-methylpent-3-en-1-yl)phosphoryl)bis(azanediyl))(2S,2′S)-dipropionate] yielded an EC50 (Vγ9/Vδ2 T cells [2]) of 1500 nM.

In the case of `C/C(=C\CCP(=O)(N[C@@H](C)C(=O)OCc1ccccc1)N[C@@H](C)C(=O)OCc1ccccc1)CO` [14d, Dibenzyl 2,2′-((((E)-5-hydroxy-4-methylpent-3-en-1-yl)phosphoryl)bis(azanediyl))(2S,2′S)-dipropionate], the “sensitizing effect for killing of T24 cells by Vγ9/Vδ2 T cells” value (T24 cells) is reported as “much more potent”, the “Activation of Vγ9/Vδ2 T cells at the highest concentration studied” value (Vγ9/Vδ2 T cells [2]) is reported as “less than that achieved with 10 μM” and the EC50 (Vγ9/Vδ2 T cells [2]) is reported as 27 nM.

For `C/C(=C\CCP(=O)(N[C@@H](C)C(=O)OC(C)(C)C)N[C@@H](C)C(=O)OC(C)(C)C)CO` [14c, Di-tert-butyl 2,2′-((((E)-5-hydroxy-4-methylpent-3-en-1-yl)phosphoryl)bis(azanediyl))(2S,2′S)-dipropionate], the EC50 (Vγ9/Vδ2 T cells [2]) was 6100 nM.

`COC(=O)[C@H](C)NP(=O)(N[C@@H](C)C(=O)OC)C(F)(F)C/C=C(\C)CO` [9a, Dimethyl 2,2′-((((E)-1,1-difluoro-5-hydroxy-4-methylpent-3-en-1-yl)phosphoryl)bis(azanediyl))(2S,2′S)-dipropionate] gave an EC50 (Vγ9/Vδ2 T cells [2]) of 191 nM.
